Key:
[1] = background statement; cited from earlier work
[2] = Solubility of poorly-soluble UV absorbers in oils: triazine derivative (Test Example 3); format: physicochemical; conditions: 2,4-bis{[4-(2-ethylhexyloxy)-2-hydroxy]phenyl}-6-(4-methoxyphenyl) 1,3,5-triazine dissolved in the oil; supernatant after crystal nuclei, 0° C
Procedure: (§1) Each of triazine derivative and dibenzoylmethane derivative was warmed and dissolved into each oil shown in Table 2, and then each mixture was cooled to room temperature. After adding crystal nuclei, they were cooled at 0° C. A saturation solubility of each supernatant fluid was measured.
2,4-bis{[4-(2-ethylhexyloxy)-2-hydroxy]phenyl}-6-(4-methoxyphenyl) 1,3,5-triazine was used as triazine derivative.

[3] = Solubility of poorly-soluble UV absorbers in oils: dibenzoylmethane derivative (Test Example 3); format: physicochemical; conditions: 4-tert-butyl-4′-methoxydibenzoylmethane dissolved in the oil; supernatant after crystal nuclei, 0° C
Procedure: as §1
4-tert-butyl-4′-methoxydibenzoylmethane was used as a dibenzoylmethane derivative (i.e. component (a)).

| Saturation solubility of triazine derivative [2] | Saturation solubility of dibenzoylmethane derivative [3] | SMILES | absorption maximum [1] |
| --- | --- | --- | --- |
| – | – | COc1ccc(C(=O)CC(=O)c2ccc(C(C)(C)C)cc2)cc1 [4-tert-butyl-4′-methoxydibenzoylmethane] | around 360 nm |
| 4% | 6% | CCCCCCCC(=O)OCC(COC(=O)CCCCCCC)(COC(=O)CCCCCCC)COC(=O)CCCCCCC [Pentaerithrityl tetraoctanoate] | – |
